From US20150045284A1 (priority 2011, published 2015) come the findings set out here.

Experiment [1] addresses LpCopA (Legionella pneumophila Cu^+ transporting P-type ATPase) (Legionella pneumophila subsp. pneumophila, UniProt Q5ZWR1). Conditions: for Measured LpCopA activity in the presence of different ions (relative ATPase activity): 100 μM CuCl2 or AgNo3, 1 mg/mL E. coli total lipid extract, 20 mM cysteine, TTM background subtracted.
Experiment [2] concerns the target HMBD-truncated LpCopA (Legionella pneumophila subsp. pneumophila, UniProt Q5ZWR1).

LpCopA (Legionella pneumophila Cu^+ transporting P-type ATPase), sequence (Q5ZWR1 whole entry, looked up, the tested form may be a part): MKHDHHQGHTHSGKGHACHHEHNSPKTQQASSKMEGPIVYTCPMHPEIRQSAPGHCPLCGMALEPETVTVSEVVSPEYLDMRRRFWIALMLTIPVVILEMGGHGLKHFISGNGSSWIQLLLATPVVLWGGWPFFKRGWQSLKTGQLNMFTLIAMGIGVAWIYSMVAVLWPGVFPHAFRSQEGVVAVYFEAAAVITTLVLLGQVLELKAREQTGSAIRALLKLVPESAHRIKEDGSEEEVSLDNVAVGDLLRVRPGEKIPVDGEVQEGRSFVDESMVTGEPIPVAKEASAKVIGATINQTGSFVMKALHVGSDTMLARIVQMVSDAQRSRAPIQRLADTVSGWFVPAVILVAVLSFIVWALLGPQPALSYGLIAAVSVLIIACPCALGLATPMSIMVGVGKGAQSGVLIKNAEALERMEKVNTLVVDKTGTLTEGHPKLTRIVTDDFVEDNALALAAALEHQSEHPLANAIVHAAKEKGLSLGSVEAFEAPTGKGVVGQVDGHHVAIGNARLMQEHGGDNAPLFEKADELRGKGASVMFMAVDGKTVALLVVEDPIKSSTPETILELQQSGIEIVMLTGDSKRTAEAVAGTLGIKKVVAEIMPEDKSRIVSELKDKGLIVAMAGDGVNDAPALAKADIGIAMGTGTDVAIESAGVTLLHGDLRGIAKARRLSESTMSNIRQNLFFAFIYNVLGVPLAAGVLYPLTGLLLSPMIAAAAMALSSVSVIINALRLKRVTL
HMBD-truncated LpCopA, sequence (Q5ZWR1 75-736 limits assumed): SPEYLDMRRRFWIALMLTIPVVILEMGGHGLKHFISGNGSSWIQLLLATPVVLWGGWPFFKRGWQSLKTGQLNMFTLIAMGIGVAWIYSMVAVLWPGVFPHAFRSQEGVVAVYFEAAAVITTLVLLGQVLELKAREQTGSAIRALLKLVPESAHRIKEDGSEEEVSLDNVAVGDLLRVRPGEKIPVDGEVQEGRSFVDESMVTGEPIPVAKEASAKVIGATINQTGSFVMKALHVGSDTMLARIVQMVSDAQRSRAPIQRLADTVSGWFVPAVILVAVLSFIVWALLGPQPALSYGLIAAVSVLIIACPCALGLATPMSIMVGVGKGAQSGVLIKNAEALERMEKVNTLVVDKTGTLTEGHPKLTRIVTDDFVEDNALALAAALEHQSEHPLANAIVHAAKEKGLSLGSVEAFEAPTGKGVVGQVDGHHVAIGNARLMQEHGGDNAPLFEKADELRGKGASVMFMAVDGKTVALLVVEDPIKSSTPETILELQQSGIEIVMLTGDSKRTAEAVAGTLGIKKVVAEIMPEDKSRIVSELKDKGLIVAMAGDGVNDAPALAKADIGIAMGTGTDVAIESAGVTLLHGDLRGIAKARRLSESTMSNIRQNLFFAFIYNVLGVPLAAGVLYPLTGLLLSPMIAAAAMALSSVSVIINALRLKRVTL

Turning to `[Ag+]` [Ag^+], in experiment [1], the “Measured LpCopA activity in the presence of different ions (relative ATPase activity)” value is on record as “clearly stimulate ATPase activity”.
Consider `[Cl][Cu][Cl]` [CuCl2], for which the “CuCl2 concentration of highest ATPase activity” value in experiment [1] (full-length LpCopA, 10 nM to 10 mM CuCl2 incl. 10 μM TTM, appears inhibited above) amounted to 1 mM. The “CuCl2 concentration of optimum ATPase activity” value in experiment [2] is reported as “about 1 mM”.
Turning to `[Cu+]` [Cu^+], in experiment [1], the “Measured LpCopA activity in the presence of different ions (relative ATPase activity)” value is listed as “clearly stimulate ATPase activity”.
